Laboratory results published in publication PMC4541002, “Quantification of Niacin and Its Metabolite Nicotinuric Acid in Human Plasma by LC-MS/MS: Application to a Clinical Trial of a Fixed Dose Combination Tablet of Niacin Extended-Release/Simvastatin (500 mg/10 mg) in Healthy Chinese Volunteers” (International Journal of Analytical Chemistry, 2015).
Read-outs that look alike come from different tables or passages of the source.

Assays:
[1] = for Found C / Found R.E.: n = 3
Procedure: The following stability tests were evaluated: (1) stability of the stock solutions of the analytes; (2) freeze and thaw stability of the analytes in the plasma from −20°C to room temperature for three cycles; (3) short-term stability of the analytes in plasma at room temperature before extraction for 3 h and the ready-to-inject samples (after extraction, in the mobile phase) to the autosampler rack for 4 h; and (4) long-term stability of the analytes in matrix stored at −20°C for two months. All stability tests samples at three concentration levels (10, 60, and 600 ng/mL) were analyzed in triplicate and the deviations were determined in relation to freshly prepared samples.

[2] = Pharmacokinetics of NA and NUA in plasma after single oral doses of Niacin extended-release/Simvastatin tablets in healthy Chinese volunteers; format: in vivo; conditions: for CLz/F: human plasma; for AUC(0-t) / AUC(0-inf) / Tmax / half-life / Cmax / k el / MRT last / Vd/F: both sexes, human, plasma, po; for k el: n = 12, read-out: K e (converted); for MRT last: n = 12, read-out: MRT0–t; for Vd/F: n = 12, read-out: V z/F
Procedure: Extraction of NA and NUA was carried out by protein precipitation. First, 50 μL of the IS working solution (1000 ng/mL 5-FU) and 50 μL of water were added to a 100 μL aliquot of human plasma. The sample mixture was then deproteinized with 250 μL of acetonitrile, and the precipitate was removed by centrifugation at 15000 rpm for 10 min. The supernatant was transferred to another tube and evaporated under a gentle stream of nitrogen at 40°C until it is dry. The residue was reconstituted in 150 μL mobile phase and vortex-mixed for 30 sec. An aliquot of 40 μL of the solution was injected into the LC-MS/MS system for analysis.
Before conducting the study all subjects provided written informed consent to participate. The study was designed as randomized, open-label, crossover, and single dose periods with a 7-day washout between each treatment. A total of 12 healthy Chinese volunteers (6 males and 6 females) aged 20 to 35 years with a body mass index between 19 and 24 kg/m^2 were recruited. Subjects were randomized into three groups (2 males and 2 females for each treatment). They were orally dosed with Niacin extended-release/Simvastatin 1, 2, and 3 tablets once daily, separately. The venous blood samples were collected at time intervals (0, 0.33, 0.66, 1.0, 1.5, 2.0, 2.5, 3.0, 3.5, 4.0, 5.0, 6.0, 8.0, 12, and 24 h) in separate vacutainers during the treatment. All blood samples were centrifuged at 3000 ×g for 10 min and the plasma was separated and kept frozen at −20°C until analysis.
The pharmacokinetic parameters were calculated with data analysis system (DAS) program (version 2.0, Mathematical Pharmacology Professional Committee, Shanghai, China). The maximum plasma concentration (C max) and the corresponding time (T max) were obtained from observed data. The terminal elimination rate constant (K e) was estimated with least-squares regression of values in the terminal log-linear region of plasma concentration-time curves, and the terminal elimination half-life (t 1/2) was calculated to be 0.693/K e. The area under the curve from time zero to the last sampling time (AUC0−t) was determined using the linear trapezoidal rule.

[3] = Stability of stock solutions of NA and NUA; format: physicochemical
Procedure: Two separate stock solutions of the analytes were prepared at 1 mg/mL in methanol-water (50 : 50, v/v) and stored at −20°C. A series of standard working solutions for NA and NUA were prepared by diluting stock solution with methanol-water (50 : 50, v/v). The 5-FU solution was brought to a final concentration of 1000 ng/mL in acetonitrile from 1 mg/mL in acetonitrile. All working solutions were stored at 4°C and brought to room temperature before use. Calibration standards and quality control samples were prepared by spiking 50 μL of the working solutions and 50 μL of IS into 100 μL of drug-free human plasma. Matrix-matched NA and NUA calibration standards were prepared in plasma at concentrations of 5, 10, 20, 60, 200, 600, and 800 ng/mL, respectively. Similarly, NA and NUA quality control (QC) samples were prepared separately in plasma to give concentrations of 10, 60, and 600 ng/mL.

[4] = extracted plasma sample in mobile phase, autosampler for 4 h (24°C), added 10.0 ng/mL
[5] = extracted plasma sample in mobile phase, autosampler for 4 h (24°C), added 60.0 ng/mL
[6] = extracted plasma sample in mobile phase, autosampler for 4 h (24°C), added 600.0 ng/mL
[7] = human plasma, long-term (2 months at −20°C), added 10.0 ng/mL
[8] = human plasma, long-term (2 months at −20°C), added 60.0 ng/mL
[9] = human plasma, long-term (2 months at −20°C), added 600.0 ng/mL
[10] = human plasma, short-term (3 h at 24°C), added 10.0 ng/mL
[11] = human plasma, short-term (3 h at 24°C), added 60.0 ng/mL
[12] = human plasma, short-term (3 h at 24°C), added 600.0 ng/mL
[13] = human plasma, three freeze/thaw cycles, added 10.0 ng/mL
[14] = human plasma, three freeze/thaw cycles, added 60.0 ng/mL
[15] = human plasma, three freeze/thaw cycles, added 600.0 ng/mL
[16] = 1 tablet (500 mg/10 mg), mean ± S.D., n = 12
[17] = 2 tablets (1000 mg/20 mg), mean ± S.D., n = 12
[18] = 3 tablets (1500 mg/30 mg), mean ± S.D., n = 12
[19] = 1 tablet (500 mg/10 mg), mean ± S.D.
[20] = 2 tablets (1000 mg/20 mg), mean ± S.D.
[21] = 3 tablets (1500 mg/30 mg), mean ± S.D.

O=C(O)c1cccnc1 [NA, 3-pyridine-carboxylic acid]
Found C [1, 4]: 9.6 ng/mL | Found R.E. [1, 4]: −3.7% | Found C [1, 5]: 62.7 ng/mL | Found R.E. [1, 5]: 4.5% | Found C [1, 6]: 578.3 ng/mL | Found R.E. [1, 6]: −3.6% | Found C [1, 7]: 9.6 ng/mL | Found R.E. [1, 7]: −4.1% | Found C [1, 8]: 53.7 ng/mL | Found R.E. [1, 8]: −10.6% | Found C [1, 9]: 595.3 ng/mL | Found R.E. [1, 9]: −0.8% | Found C [1, 10]: 9.1 ng/mL | Found R.E. [1, 10]: −8.9% | Found C [1, 11]: 58.8 ng/mL | Found R.E. [1, 11]: −2.1% | Found C [1, 12]: 636.3 ng/mL | Found R.E. [1, 12]: 6.0% | Found C [1, 13]: 9.5 ng/mL | Found R.E. [1, 13]: −4.6% | Found C [1, 14]: 58.0 ng/mL | Found R.E. [1, 14]: −3.28% | Found C [1, 15]: 546.3 ng/mL | Found R.E. [1, 15]: −9.0% | stability in human plasma ([1]; variety of storage and process conditions (Tables 2 and 3)): did not reveal any significant degradation | CLz/F [2, 16]: 1271 ± 850.0 L/h | CLz/F [2, 17]: 744.0 ± 356.0 L/h | CLz/F [2, 18]: 526.0 ± 421.0 L/h | AUC(0-t) ([2]; 1 tablet): 349 ± 192 ng·h/mL | AUC(0-inf) [2, 16]: 518 ± 226 ng·h/mL | AUC(0-t) [2, 16]: 385 ± 192 ng·h/mL | Tmax [2, 16]: 2.94 ± 2.63 h | half-life [2, 16]: 8.8 ± 8.49 h | Cmax ([2]; 1 tablet (500 mg/10 mg), mean ± S.D., n = 12, read-out: C max): 160 ± 125 ng/mL | k el [2, 19]: 5.28e-05 s⁻¹ | MRT last [2, 19]: 5.37 ± 1.96 h | Vd/F [2, 19]: 13700 ± 11600 L | Cmax ([2]; 1 tablet, read-out: mean maximum plasma concentration (C max)): 160 ± 125 ng/mL | AUC(0-t) ([2]; 2 tablets): 1540 ± 957 ng·h/mL | AUC(0-inf) [2, 17]: 1720 ± 923 ng·h/mL | AUC(0-t) [2, 17]: 1540 ± 957 ng·h/mL | Tmax [2, 17]: 1.82 ± 1.69 h | half-life [2, 17]: 7.33 ± 8.68 h | Cmax ([2]; 2 tablets (1000 mg/20 mg), mean ± S.D., n = 12, read-out: C max): 904 ± 487 ng/mL | k el [2, 20]: 0.000119 s⁻¹ | MRT last [2, 20]: 4.4 ± 2.21 h | Vd/F [2, 20]: 7650 ± 9320 L | Cmax ([2]; 2 tablets, read-out: C max): 904 ± 487 ng/mL | AUC(0-t) ([2]; 3 tablets): 6020 ± 6580 ng·h/mL | AUC(0-inf) [2, 18]: 6100 ± 6550 ng·h/mL | AUC(0-t) [2, 18]: 6020 ± 6580 ng·h/mL | Tmax [2, 18]: 2.42 ± 1.64 h | half-life [2, 18]: 5.4 ± 4.57 h | Cmax ([2]; 3 tablets (1500 mg/30 mg), mean ± S.D., n = 12, read-out: C max): 2480 ± 1430 ng/mL | k el [2, 21]: 7.5e-05 s⁻¹ | MRT last [2, 21]: 3.65 ± 1.33 h | Vd/F [2, 21]: 5200 ± 6650 L | Cmax ([2]; 3 tablets, read-out: C max): 2480 ± 1430 ng/mL | R.E.% of response, stock solution stability ([3]; seven days at −20°C versus before): −5.8% | R.E.% of response, stock solution stability ([3]; six h at room temperature versus before): −1.1%
